Source: patent publication US11866430B2, “Naphthyridinone compounds useful as T cell activators” (priority 2018, dated 2024)
pIC50: −log10 of the molar value. Read-outs that look alike come from different tables or passages of the source.

Key:
human DGKα = human DGKα (Homo sapiens (Human), UniProt P23743); assay: biochemical; details: detergent/lipid micelle substrate; read-out: DGKα IC50
Experimental: (§1) The DGKα and DGKζ reactions were performed using either extruded liposome (DGKα and DGKζ LIPGLO assays) or detergent/lipid micelle substrate (DGKα and DGKζ assays). The reactions were carried out in 50 mM MOPS pH 7.5, 100 mM NaCl, 10 mM MgCl2, 1 μM CaCl2, and 1 mM DTT (assay buffer). The reactions using a detergent/lipid micelle substrate also contained 50 mM octyl B-D-glucopyranoside. […] The lipid substrate concentrations were […], 0.25 mM DAG, and 2.75 mM PC for the extruded liposome reactions.
(§2) The compound inhibition studies were carried out as follows: 50 nL droplets of each test compound (top concentration 10 mM with 11 point, 3-fold dilution series for each compound) solubilized in DMSO were transferred to wells of a white 1536 well plate (Corning 3725). A 5 mL enzyme/substrate solution at 2× final reaction concentration was prepared by combining 2.5 mL 4× enzyme solution (20 nM DGKα or DGKζ (prepared as described below) in assay buffer) and 2.5 mL of either 4× liposome or 4× detergent/lipid micelle solution (compositions described below) and incubated at room temperature for 10 minutes. Next, 1 μL 2× enzyme/substrate solution was added to wells containing the test compound and reactions were initiated with the addition of 1 μL 300 uM ATP. The reactions were allowed to proceed for 1 hr, after which 2 μL Glo Reagent (Promega V9101) was added and incubated for 40 minutes. Next, 4 μL Kinase Detection Reagent was added and incubated for 30 minutes. Luminescence was recorded using an EnVision microplate reader. […] The compounds were evaluated at 11 concentrations to determine IC50.
(§3) The detergent/lipid micelle was prepared by combining 15 g phosphatidylserine (Avanti 840035P) and 1 g diacylglycerol (800811O) and dissolving into 150 mL chloroform in a 2 L round bottom flask. Chloroform was removed under high vacuum by rotary evaporation. The resulting colorless, tacky oil was resuspended in 400 mL 50 mM MOPS pH 7.5, 100 mM NaCl, 20 mM NaF, 10 mM MgCl2, 1 μM CaCl2), 1 mM DTT, and 200 mM octyl glucoside by vigorous mixing. The lipid/detergent solution was split into 5 mL aliquots and stored at −80° C.
(§4) Human DGK-alpha-TVMV-His-pFBgate and human DCK-zeta-transcript variant-2-TVMV-His-pFBgate baculovirus samples were generated using the Bac-to-Bac baculovirus expression system (Invitrogen) according to the manufacturer's protocol. The DNA used for expression of DGK-alpha and DGK-zeta have SEQ ID NOs: 1 and 3, respectively. Baculovirus amplification was achieved using infected Sf9 cells at 1:1500 virus/cell ratios, and grown for 65 hours at 27° C. post-transfection.
(§5) The expression scale up for each protein was carried out in the Cellbag 50 L WAVE-Bioreactor System 20/50 from GE Healthcare Bioscience. 12 L of 2×10^6 cells/mL Sf9 cells (Expression System, Davis, Calif.) grown in ESF921 insect medium (Expression System) were infected with virus stock at 1:200 virus/cell ratios, and grown for 66-68 hours at 27° C. post-infection. The infected cell culture was harvested by centrifugation at 2000 rpm for 20 min 4° C. in a SORVALL® RC12BP centrifuge. The cell pellets were stored at −70° C. until purification.
(§6) Full length human DGKα and DGKζ, each expressed containing a TVMV-cleavable C-terminal Hexa-His tag sequence (SEQ ID NOs: 2 and 4, respectively) and produced as described above, were purified from Sf) baculovirus-infected insect cell paste. The cells were lysed using nitrogen cavitation method with a nitrogen bomb (Parr Instruments), and the lysates were clarified by centrifugation. […] The three steps column chromatography included nickel affinity resin capture (i.e. HisTrap FF crude, GE Healthcare), followed by size exclusion chromatography (i.e. HiLoad 26/600 Superdex 200 prep grade, GE Healthcare for DGK-alpha, and HiPrep 26/600 Sephacryl S 300_HR, GE Healthcare for DGK-zeta).

human DGKζ = human DGKζ (Homo sapiens (Human), UniProt Q13574); assay: DGKζ assay (detergent/lipid micelle substrate); format: biochemical
Chain of human DGKζ (Q13574 other isoform, or with tags, fused parts or gaps): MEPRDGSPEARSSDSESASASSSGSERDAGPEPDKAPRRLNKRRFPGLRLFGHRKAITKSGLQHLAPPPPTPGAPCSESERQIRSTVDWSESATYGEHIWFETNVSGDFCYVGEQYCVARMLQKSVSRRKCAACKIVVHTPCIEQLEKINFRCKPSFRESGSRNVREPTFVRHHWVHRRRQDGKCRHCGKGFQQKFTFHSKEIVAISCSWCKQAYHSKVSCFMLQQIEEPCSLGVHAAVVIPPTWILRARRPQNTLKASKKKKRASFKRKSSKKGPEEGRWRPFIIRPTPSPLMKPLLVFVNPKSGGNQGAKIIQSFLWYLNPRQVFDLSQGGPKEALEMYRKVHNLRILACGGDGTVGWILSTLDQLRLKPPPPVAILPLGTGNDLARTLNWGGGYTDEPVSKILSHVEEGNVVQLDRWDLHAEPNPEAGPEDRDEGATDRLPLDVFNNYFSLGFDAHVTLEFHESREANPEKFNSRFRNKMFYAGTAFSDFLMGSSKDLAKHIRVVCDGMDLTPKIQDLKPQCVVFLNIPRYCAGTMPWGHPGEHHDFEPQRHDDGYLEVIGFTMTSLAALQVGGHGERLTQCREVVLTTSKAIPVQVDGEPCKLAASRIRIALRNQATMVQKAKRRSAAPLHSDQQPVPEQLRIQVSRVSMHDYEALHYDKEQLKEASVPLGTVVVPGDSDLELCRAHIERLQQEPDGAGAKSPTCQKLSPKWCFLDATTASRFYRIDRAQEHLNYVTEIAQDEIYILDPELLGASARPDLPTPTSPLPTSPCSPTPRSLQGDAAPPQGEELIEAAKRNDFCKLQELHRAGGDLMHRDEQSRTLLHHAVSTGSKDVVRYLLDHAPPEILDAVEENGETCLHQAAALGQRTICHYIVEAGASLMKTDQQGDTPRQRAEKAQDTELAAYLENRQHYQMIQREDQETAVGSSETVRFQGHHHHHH
Experimental: as §1, §2, §3, §4, §5, §6

[1] = test system: pre-activated CD4 T cells and Raji cells; assay: Raji CD4 T Cell IL2 Assay; format: cell-based
[2] = detergent/lipid micelle substrate, read-out: DGKζ IC50
[3] = DGKζ IC50, detergent/lipid micelle substrate

Chain of human DGKα (P23743 other isoform, or with tags, fused parts or gaps): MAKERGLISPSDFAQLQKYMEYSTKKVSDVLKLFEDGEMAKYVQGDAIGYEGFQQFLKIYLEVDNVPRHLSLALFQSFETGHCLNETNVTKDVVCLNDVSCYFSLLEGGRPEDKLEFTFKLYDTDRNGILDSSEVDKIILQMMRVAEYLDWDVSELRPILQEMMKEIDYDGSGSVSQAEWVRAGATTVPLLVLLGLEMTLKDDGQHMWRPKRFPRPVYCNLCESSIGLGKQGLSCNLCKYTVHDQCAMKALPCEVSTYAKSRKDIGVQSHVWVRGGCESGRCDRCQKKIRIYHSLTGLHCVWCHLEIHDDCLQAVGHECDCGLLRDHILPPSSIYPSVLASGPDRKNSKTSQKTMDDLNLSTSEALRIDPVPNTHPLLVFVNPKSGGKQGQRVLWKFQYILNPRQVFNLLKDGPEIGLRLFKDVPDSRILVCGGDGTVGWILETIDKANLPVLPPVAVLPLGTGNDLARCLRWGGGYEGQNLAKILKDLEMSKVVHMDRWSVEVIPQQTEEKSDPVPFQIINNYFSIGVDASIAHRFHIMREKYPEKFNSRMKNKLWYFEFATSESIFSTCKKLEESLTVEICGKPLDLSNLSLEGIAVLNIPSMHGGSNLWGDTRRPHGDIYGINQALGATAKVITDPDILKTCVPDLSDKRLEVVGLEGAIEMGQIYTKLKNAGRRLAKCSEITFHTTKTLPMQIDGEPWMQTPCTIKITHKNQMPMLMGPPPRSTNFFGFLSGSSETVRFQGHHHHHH

| Compound | pIC50 (human DGKα) | pIC50 (human DGKζ; [2]) | pIC50 [1] | pIC50 (human DGKζ; [3]) | pIC50 ([1]; Homo sapiens, Raji) |
| --- | --- | --- | --- | --- | --- |
| COc1cc(F)ccc1C(c1ccc(F)cc1)N1CCN(c2c([N+](=O)[O-])c(=O)n(C)c3ccc(Br)nc23)CC1 (single isomer, unassigned) [Example 58, 6-bromo-4-(4-((4-fluoro-2-methoxyphenyl)(4-fluorophenyl)methyl)piperazin-1-yl)-1-methyl-3-nitro-1,5-naphthyridin-2(1H)-one] | 6.60 | 4.72 | 7.55 |  |  |
| COc1cccc(C)c1C(c1ccc(F)cc1)N1CCN(c2c([N+](=O)[O-])c(=O)n(C)c3ccc(Br)nc23)CC1 (single isomer, unassigned) [Example 60, 6-bromo-4-(4-((4-fluorophenyl)(2-methoxy-6-methylphenyl)methyl)piperazin-1-yl)-1-methyl-3-nitro-1,5-naphthyridin-2(1H)-one] | 4.49 | < 3.62 | 5.80 |  |  |
| COc1cccc(C)c1C(c1ccc(F)cc1)N1CCN(c2c([N+](=O)[O-])c(=O)n(C)c3ccc(Br)nc23)CC1 (single isomer, unassigned) [Example 61, 6-bromo-4-(4-((4-fluorophenyl)(2-methoxy-6-methylphenyl)methyl)piperazin-1-yl)-1-methyl-3-nitro-1,5-naphthyridin-2(1H)-one] | 5.36 | 5.66 | 7.25 |  |  |
| Cn1c(=O)c([N+](=O)[O-])c(N2CCN(C(c3ccc(F)cc3)c3cccc(F)c3O)CC2)c2nc(Br)ccc21 (single isomer, unassigned) [Example 75, 6-bromo-4-(4-((3-fluoro-2-hydroxyphenyl)(4-fluorophenyl)methyl)piperazin-1-yl)-1-methyl-3-nitro-1,5-naphthyridin-2(1H)-one] | 5.59 |  | 6.85 | 3.89 |  |
| Cn1c(=O)c([N+](=O)[O-])c(N2CCN(C(c3ccc(F)cc3)c3cccc(F)c3O)CC2)c2nc(Br)ccc21 (single isomer, unassigned) [Example 76, 6-bromo-4-(4-((3-fluoro-2-hydroxyphenyl)(4-fluorophenyl)methyl)piperazin-1-yl)-1-methyl-3-nitro-1,5-naphthyridin-2(1H)-one] | 5.26 |  | 7.17 | 5.60 |  |
| Cn1c(=O)c([N+](=O)[O-])c(N2CCN(C(c3ccccc3)c3ccccc3O)CC2)c2nc(Br)ccc21 (single isomer, unassigned) [Example 79, 6-bromo-4-(4-((2-hydroxyphenyl)(phenyl)methyl)piperazin-1-yl)-1-methyl-3-nitro-1,5-naphthyridin-2(1H)-one] | 4.09 | < 4.09 | 7.17 |  |  |
| Cc1cccc(C(c2ccc(F)cc2)N2CCN(c3c([N+](=O)[O-])c(=O)n(C)c4ccc(Br)nc34)CC2)c1O (single isomer, unassigned) [Example 85, 6-bromo-4-(4-((4-fluorophenyl)(2-hydroxy-3-methylphenyl)methyl)piperazin-1-yl)-1-methyl-3-nitro-1,5-naphthyridin-2(1H)-one] | 5.12 | 6.11 |  |  | 7.00 |
| Cc1cccc(OCc2cncc(C#N)c2)c1C(c1ccc(F)cc1)N1CCN(c2c([N+](=O)[O-])c(=O)n(C)c3ccc(Br)nc23)CC1 (single isomer, unassigned) [Example 89, 5-((2-((4-(6-bromo-1-methyl-3-nitro-2-oxo-1,2-dihydro-1,5-naphthyridin-4-yl)piperazin-1-yl)(4-fluorophenyl)methyl)-3-methylphenoxy)methyl)nicotinonitrile] | 4.39 | < 3.62 | 5.55 |  |  |
| C=CCOc1cccc(C)c1C(c1ccc(F)cc1)N1CCN(c2c([N+](=O)[O-])c(=O)n(C)c3ccc(Br)nc23)CC1 (single isomer, unassigned) [Example 95, 4-(4-((2-(allyloxy)-6-methylphenyl)(4-fluorophenyl)methyl)piperazin-1-yl)-6-bromo-1-methyl-3-nitro-1,5-naphthyridin-2(1-H)-one] | < 3.62 | < 3.62 | 5.96 |  |  |
| C=CCOc1cccc(C)c1C(c1ccc(F)cc1)N1CCN(c2c([N+](=O)[O-])c(=O)n(C)c3ccc(Br)nc23)CC1 (single isomer, unassigned) [Example 96, 4-(4-((2-(allyloxy)-6-methylphenyl)(4-fluorophenyl)methyl)piperazin-1-yl)-6-bromo-1-methyl-3-nitro-1,5-naphthyridin-2(1-H)-one] | 4.06 | 4.28 | 6.44 |  |  |
| Cn1c(=O)c([N+](=O)[O-])c(N2CCN(C(c3ccc(F)cc3)c3ccccc3O)CC2)c2nc(C#N)ccc21 (single isomer, unassigned) [Example 98, 8-(4-((4-fluorophenyl)(2-hydroxyphenyl)methyl)piperazin-1-yl)-5-methyl-7-nitro-6-oxo-5,6-dihydro-1,5-naphthyridine-2-carbonitrile] | 5.17 | 5.36 | 6.89 |  |  |
| C#CCOc1ccccc1C(c1ccc(F)cc1)N1CCN(c2c([N+](=O)[O-])c(=O)n(C)c3ccc(C#N)nc23)CC1 (single isomer, unassigned) [Example 101, 8-(4-((4-fluorophenyl)(2-(prop-2-yn-1-yloxy)phenyl)methyl)piperazin-1-yl)-5-methyl-7-nitro-6-oxo-5,6-dihydro-1,5-naphthyridine-2-carbonitrile] | 4.82 | 4.57 |  |  | 6.72 |
| C#CCn1c(=O)c(C#N)c(N2CCN(C(c3ccc(F)cc3)c3ccccc3O)CC2)c2nc(Br)ccc21 (single isomer, unassigned) [Example 106, 6-bromo-4-(4-((4-fluorophenyl)(2-hydroxyphenyl)methyl)piperazin-1-yl)-2-oxo-1-(prop-2-yn-1-yl)-1,2-dihydro-1,5-naphthyridine-3-carbonitrile] | 6.02 | 5.70 |  |  | 8.62 |
| COCCn1c(=O)c(C#N)c(N2CCN(C(c3ccc(F)cc3)c3ccc(F)cc3OC)CC2)c2nc(Br)ccc21 (single isomer, unassigned) [Example 115, 6-bromo-4-(4-((4-fluoro-2-methoxyphenyl)(4-fluorophenyl)methyl)piperazin-1-yl)-1-(2-methoxyethyl)-2-oxo-1,2-dihydro-1,5-naphthyridine-3-carbonitrile] | 3.66 | < 3.62 | 5.42 |  |  |
| COCCn1c(=O)c(C#N)c(N2CCN(C(c3ccc(F)cc3)c3ccc(F)cc3OC)CC2)c2nc(Br)ccc21 (single isomer, unassigned) [Example 116, 6-bromo-4-(4-((4-fluoro-2-methoxyphenyl)(4-fluorophenyl)methyl)piperazin-1-yl)-1-(2-methoxyethyl)-2-oxo-1,2-dihydro-1,5-naphthyridine-3-carbonitrile] | < 3.62 | < 3.62 | 6.77 |  |  |
| C#CCn1c(=O)c([N+](=O)[O-])c(N2CCN(C(c3ccc(F)cc3)C3CC3)CC2)c2nc(C#N)ccc21 (single isomer, unassigned) [Example 144, 8-(4-(cyclopropyl(4-fluorophenyl)methyl)piperazin-1-yl)-7-nitro-6-oxo-5-(prop-2-yn-1-yl)-5,6-dihydro-1,5-naphthyridine-2-carbonitrile] | 6.28 | 5.10 |  |  | 7.70 |
